Measured values as given in patent publication US8124581B2, “Methods for treating breast cancer using NRIF3 related molecules” (New York University, priority 2004, dated 2012).
Entries after “also recorded” stand apart in the source; their conditions may differ. Where a SMILES comes first, the peptide text is derived from it. The star is where a group is joined. Cbz = O=C(OCc1ccccc1)*; CH2F = FC*

How the values were obtained:
[1] = test system: T-47D cells; test: Modulation of NRIF3- or DD1-mediated apoptosis in T-47D cells (TUNEL); assay type: cell-based, human
Procedure: (§1) Cell culture and transfection conditions. All breast cancer cell lines were maintained in DMEM (GIBCO-BRL, Life Technologies) supplemented with 10% fetal bovine serum (FBS). Other cells were cultured in DMEM supplemented with either 10% FBS or 10% Hyclone defined/supplemented bovine calf serum. For most of the transient transfections, T-47D cells were plated at a density of 3×10^4 cells/well on coverslips in 24-well tissue culture plates. About 20 h later, the cells were transfected with indicated plasmid(s) by Genefect transfection reagent (Molecula, USA) according to manufacturer's protocol. Generally, the amount of plasmids used in transfections was the following: GFP or GFP-fusion 300-500 ng, Bcl-2 or Bcl-xL 1-1.5 μg, AIF-GFP 500 ng, Gal4-DD1, GAl4-DD3 or Gal4 control 0.5-1 μg. After transfection, cells were incubated in DMEM/10% FBS medium for 5 h to 24 h before being harvested and processed for appropriate analyses. Transient transfection of other breast cancer cell lines were carried out similarly, except that the transfection reagent used was Lipofectamine 2000 (Life technologies). All other cells were transfected using Geneporter 2 (Gene Therapy Systems). When indicated, the following compounds were included in the medium: all-trans retinoic acid (100 nM), etopside (100 μM), zVAD-fmk (100 μM), zVDVAD-fmk (20 μM), TNFα (10 ng/ml) and cycloheximide (10 μg/ml).
siRNA studies. A small interference RNA (siRNA) duplex that efficiently silences human caspase-2 expression has been previously described (27), and was purchased from Dharmacon. The siRNA was dissolved at 20 pmol/μl in H2O. T-47D cells were plated at the density of 1.5×10^5 cells/well in 6-well plates the day before being transfected with siRNA. Transfection was carried out using Oligofectamine (Invitrogen), with 12 μl of dissolved siRNA and 12 μl of Oligofectamine reagent. Cells were fed with additional DMEM/10% FBS the second day, and harvested about 42 h after siRNA transfection. […] The harvested cells were then re-plated on cover-slips in 24-well plates as described earlier, and incubated for a few hours to let attachment occur. Cells were then transfected with the indicated GFP or GFP-fusion vectors as described earlier or treated with etoposide (100 μM). Cells were harvested about 20-24 h later and processed for appropriate assays. To document caspase-2 knock down, total lysates from siRNA transfected or control cells were quantified for protein concentrations. Equal amount of proteins were then subjected to SDS-PAGE, followed by Western analysis using a monoclonal antibody against caspase-2 (11B4, from Alexis).
Apoptosis assays. Cells plated on cover-slips in 24-well tissue culture plates were transfected and/or treated with appropriate compounds as indicated. Generally, cells were harvested within 20-24 h and processed for TUNEL and/or Annexin V assays. For Annexin V assay, cells were washed 3× with PBS and assayed using ApoAlert Nitric Oxide/Annexin V Dual Sensor Kit (BD Biosciences, USA) according to manufacturer's protocol. […] For quantitative analysis, fields consisting of at least several hundred cells were scanned, and a number of representative fields were photographed using GFP and rhodamine filters. Green and red cells from the same field were then counted. Generally, about one hundred of total green cells were counted for each data point. The percent of green cells counted that are also red were then calculated.

[2] = test system: HeLa cells; test: Apoptosis of HeLa cells treated with TNFα and cycloheximide; assay type: cell-based; conditions: same dose (100 uM); data not shown
Procedure: as §1

[3] = test system: T-47D cells; test: TUNEL apoptosis assay of transfected T-47D cells; assay type: cell-based, human; conditions: T-47D cells transfected with expression vector
Procedure: as §1, with “Transient transfection of other breast cancer cell lines were carried out similarly, except that the transfection reagent used was Lipofectamine 2000 (Life technologies). All other cells were transfected using Geneporter 2 (Gene Therapy Systems). When indicated, the following compounds were included in the medium: all-trans retinoic acid (100 nM), etopside (100 μM), zVAD-fmk (100 μM), zVDVAD-fmk (20 μM), TNFα (10 ng/ml) and cycloheximide (10 μg/ml).” left out
(§2) Apoptosis assays. […] For quantitative analysis, fields consisting of at least several hundred cells were scanned, and a number of representative fields were photographed using GFP and rhodamine filters. Green and red cells from the same field were then counted. Generally, about one hundred of total green cells were counted for each data point. The percent of green cells counted that are also red were then calculated.

[4] = test system: AIF-GFP; test: AIF-GFP translocation from mitochondria to nucleus in T-47D cells; assay type: cell-based, human; conditions: as early as 5 h after transfection
Procedure: as §1, with “Transient transfection of other breast cancer cell lines were carried out similarly, except that the transfection reagent used was Lipofectamine 2000 (Life technologies). All other cells were transfected using Geneporter 2 (Gene Therapy Systems). When indicated, the following compounds were included in the medium: all-trans retinoic acid (100 nM), etopside (100 μM), zVAD-fmk (100 μM), zVDVAD-fmk (20 μM), TNFα (10 ng/ml) and cycloheximide (10 μg/ml).” left out
as §2

[5] = test system: MCF-7 cells; test: TUNEL apoptosis assay of transfected MCF-7 cells; assay type: cell-based, human; conditions: MCF-7 (ER+)
Procedure: as §1, with “Transient transfection of other breast cancer cell lines were carried out similarly, except that the transfection reagent used was Lipofectamine 2000 (Life technologies). All other cells were transfected using Geneporter 2 (Gene Therapy Systems). When indicated, the following compounds were included in the medium: all-trans retinoic acid (100 nM), etopside (100 μM), zVAD-fmk (100 μM), zVDVAD-fmk (20 μM), TNFα (10 ng/ml) and cycloheximide (10 μg/ml).” left out
as §2

[6] = test system: MB-MDA-231 cells; test: TUNEL apoptosis assay of transfected MB-MDA-231 cells; assay type: cell-based, human; conditions: MB-MDA-231 (ER−)
Procedure: as §1, with “Transient transfection of other breast cancer cell lines were carried out similarly, except that the transfection reagent used was Lipofectamine 2000 (Life technologies). All other cells were transfected using Geneporter 2 (Gene Therapy Systems). When indicated, the following compounds were included in the medium: all-trans retinoic acid (100 nM), etopside (100 μM), zVAD-fmk (100 μM), zVDVAD-fmk (20 μM), TNFα (10 ng/ml) and cycloheximide (10 μg/ml).” left out
as §2

[7] = test system: MB-MDA-435 cells; test: TUNEL apoptosis assay of transfected MB-MDA-435 cells; assay type: cell-based, human; conditions: MB-MDA-435 (ER−)
Procedure: as §1, with “Transient transfection of other breast cancer cell lines were carried out similarly, except that the transfection reagent used was Lipofectamine 2000 (Life technologies). All other cells were transfected using Geneporter 2 (Gene Therapy Systems). When indicated, the following compounds were included in the medium: all-trans retinoic acid (100 nM), etopside (100 μM), zVAD-fmk (100 μM), zVDVAD-fmk (20 μM), TNFα (10 ng/ml) and cycloheximide (10 μg/ml).” left out
as §2

[8] = test system: ER+ derivative of MB-MDA-231; test: TUNEL apoptosis assay of transfected ER+ derivative of MB-MDA-231; assay type: cell-based, human
Procedure: as §1, with “Transient transfection of other breast cancer cell lines were carried out similarly, except that the transfection reagent used was Lipofectamine 2000 (Life technologies). All other cells were transfected using Geneporter 2 (Gene Therapy Systems). When indicated, the following compounds were included in the medium: all-trans retinoic acid (100 nM), etopside (100 μM), zVAD-fmk (100 μM), zVDVAD-fmk (20 μM), TNFα (10 ng/ml) and cycloheximide (10 μg/ml).” left out
as §2

[9] = test system: HBL100 cells; test: TUNEL apoptosis assay of transfected HBL100 cells; assay type: cell-based; conditions: HBL100, non-malignant immortalized breast epithelial cell line
Procedure: as §1, with “Transient transfection of other breast cancer cell lines were carried out similarly, except that the transfection reagent used was Lipofectamine 2000 (Life technologies). All other cells were transfected using Geneporter 2 (Gene Therapy Systems). When indicated, the following compounds were included in the medium: all-trans retinoic acid (100 nM), etopside (100 μM), zVAD-fmk (100 μM), zVDVAD-fmk (20 μM), TNFα (10 ng/ml) and cycloheximide (10 μg/ml).” left out
as §2

[10] = test system: HeLa cells; test: TUNEL apoptosis assay of transfected HeLa cells; assay type: cell-based
Procedure: as §1, with “Transient transfection of other breast cancer cell lines were carried out similarly, except that the transfection reagent used was Lipofectamine 2000 (Life technologies). All other cells were transfected using Geneporter 2 (Gene Therapy Systems). When indicated, the following compounds were included in the medium: all-trans retinoic acid (100 nM), etopside (100 μM), zVAD-fmk (100 μM), zVDVAD-fmk (20 μM), TNFα (10 ng/ml) and cycloheximide (10 μg/ml).” left out
as §2

[11] = test system: 293; test: TUNEL apoptosis assay of transfected 293 cells; assay type: cell-based
Procedure: as §1, with “Transient transfection of other breast cancer cell lines were carried out similarly, except that the transfection reagent used was Lipofectamine 2000 (Life technologies). All other cells were transfected using Geneporter 2 (Gene Therapy Systems). When indicated, the following compounds were included in the medium: all-trans retinoic acid (100 nM), etopside (100 μM), zVAD-fmk (100 μM), zVDVAD-fmk (20 μM), TNFα (10 ng/ml) and cycloheximide (10 μg/ml).” left out
as §2

[12] = test system: COS-1; test: TUNEL apoptosis assay of transfected COS-1 cells; assay type: cell-based
Procedure: as §1, with “Transient transfection of other breast cancer cell lines were carried out similarly, except that the transfection reagent used was Lipofectamine 2000 (Life technologies). All other cells were transfected using Geneporter 2 (Gene Therapy Systems). When indicated, the following compounds were included in the medium: all-trans retinoic acid (100 nM), etopside (100 μM), zVAD-fmk (100 μM), zVDVAD-fmk (20 μM), TNFα (10 ng/ml) and cycloheximide (10 μg/ml).” left out
as §2

[13] = test system: UOK-145; test: TUNEL apoptosis assay of transfected UOK-145 cells; assay type: cell-based
Procedure: as §1, with “Transient transfection of other breast cancer cell lines were carried out similarly, except that the transfection reagent used was Lipofectamine 2000 (Life technologies). All other cells were transfected using Geneporter 2 (Gene Therapy Systems). When indicated, the following compounds were included in the medium: all-trans retinoic acid (100 nM), etopside (100 μM), zVAD-fmk (100 μM), zVDVAD-fmk (20 μM), TNFα (10 ng/ml) and cycloheximide (10 μg/ml).” left out
as §2

[14] = test system: GH4C1; test: TUNEL apoptosis assay of transfected GH4C1 cells; assay type: cell-based
Procedure: as §1, with “Transient transfection of other breast cancer cell lines were carried out similarly, except that the transfection reagent used was Lipofectamine 2000 (Life technologies). All other cells were transfected using Geneporter 2 (Gene Therapy Systems). When indicated, the following compounds were included in the medium: all-trans retinoic acid (100 nM), etopside (100 μM), zVAD-fmk (100 μM), zVDVAD-fmk (20 μM), TNFα (10 ng/ml) and cycloheximide (10 μg/ml).” left out
as §2

[15] = 100 uM inhibitor prior to and after transfection, T-47D

COC(=O)C[C@H](NC(=O)[C@H](C)NC(=O)[C@@H](NC(=O)OCc1ccccc1)C(C)C)C(=O)CF [zVAD-fmk] (Cbz-Val-Ala-Asp(OMe)-CH2F)
effect on apoptosis mediated by GFP-NRIF3 [1, 15]: did not inhibit apoptosis
effect on apoptosis mediated by GFPNLS-DD1 [1, 15]: did not inhibit apoptosis
cell death caused by inhibitor alone ([1]; T-47D, no transfected death construct, data not shown): did not cause cell death
effect on apoptosis of HeLa cells treated with TNFα and cycloheximide [2]: significantly inhibit apoptosis

COC(=O)C[C@H](NC(=O)[C@H](C)NC(=O)[C@@H](NC(=O)[C@H](CC(=O)OC)NC(=O)[C@@H](NC(=O)OCc1ccccc1)C(C)C)C(C)C)C(=O)CF [zVDVAD-fmk] (Cbz-VD(OMe)VAD(OMe)-CH2F)
effect of caspase-2 chemical inhibitor on DD1-induced apoptosis ([1]; T-47D, 20 μM in medium, data not shown): efficiently blocked

Bcl-2: anti-apoptotic Bcl-2 family protein co-expressed from a vector
effect of co-expression on DD1-mediated apoptosis ([1]; co-expressed with GFPNLS-DD1 in T-47D): significantly inhibited

DD1: death domain 1, residues 20-50 of NRIF3 (SEQ ID NO:11), co-resides with transrepression domain RepD1 (PSKITRKKSVITYSPTTGTCQMSLFASPTSS; sequence of DD1)
induction of apoptosis (TUNEL and/or Annexin V) [3]: efficient apoptosis; also recorded: underwent rapid apoptosis
induction of apoptosis (TUNEL and/or Annexin V) ([3]; listed as RepD1): efficiently induced death
sub-cellular location of AIF-GFP upon co-expression [4]: translocation of AIF-GFP from mitochondria to the nucleus
induction of apoptosis [5]: efficient apoptosis
induction of apoptosis [6]: efficient apoptosis
induction of apoptosis [7]: efficient apoptosis
induction of apoptosis [8]: efficient apoptosis
induction of apoptosis [9]: efficient apoptosis
induction of apoptosis [10]: did not lead to apoptosis; also recorded: no detectable cell death
induction of apoptosis [11]: did not lead to apoptosis; also recorded: no detectable cell death
induction of apoptosis [12]: did not lead to apoptosis
induction of apoptosis [13]: did not lead to apoptosis
induction of apoptosis [14]: did not lead to apoptosis
